In patent US9216983B2, “Dihydroorotate dehydrogenase inhibitors with selective anti-malarial activity” (BOARD OF REGENTS, UNIVERSITY OF TEXAS SYSTEM, priority 2007, dated 2015):
Read-outs that look alike come from different tables or passages of the source.

Columns and labels:
PfDHODH = biological target: T1, PfDHODH (Plasmodium falciparum, UniProt Q08210); test: biochemical
T1 sequence (Q08210 24-569): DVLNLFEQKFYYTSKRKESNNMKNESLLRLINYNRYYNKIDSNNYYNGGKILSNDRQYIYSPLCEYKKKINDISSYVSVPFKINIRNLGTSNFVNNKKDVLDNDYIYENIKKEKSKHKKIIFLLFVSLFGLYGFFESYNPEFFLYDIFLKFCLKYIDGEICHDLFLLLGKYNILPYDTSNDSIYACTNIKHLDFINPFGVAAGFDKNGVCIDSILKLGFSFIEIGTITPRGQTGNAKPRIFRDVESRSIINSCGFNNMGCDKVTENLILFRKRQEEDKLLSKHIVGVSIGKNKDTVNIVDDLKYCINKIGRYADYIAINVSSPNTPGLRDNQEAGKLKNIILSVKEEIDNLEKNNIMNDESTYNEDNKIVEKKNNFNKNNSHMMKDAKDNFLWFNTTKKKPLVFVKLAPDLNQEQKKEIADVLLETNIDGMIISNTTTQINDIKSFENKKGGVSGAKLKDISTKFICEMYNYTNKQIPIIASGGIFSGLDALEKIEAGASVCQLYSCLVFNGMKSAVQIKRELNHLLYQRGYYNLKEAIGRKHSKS
Procedure: (§1) Briefly, the assay solution contained 100 mM HEPES, pH 8.0, 150 mM NaCl, 10% glycerol, 0.1% Triton X-100, 20 micro molar COQD (coenzyme QD), 200 micro molar L-dihydroorotate, and 120 micro molar DCIP. Reactions are initiated by addition of enzyme to a final concentration in the range of about […] to about 50 nM while maintaining the temperature of a circulating water bath at 25° C.
(§2) Assay solutions were prepared as discussed above, except that DCIP is not present and the solution is depleted of oxygen by the inclusion of an oxidase/reductase system, such as, 0.1 mg/ml of glucose oxidase, 0.02 mg/ml catalase and 50 mM glucose. The data obtained is fitted to equation 1, to determine the IC50 values of the representative compounds.

PbDHODH = PbDHODH (Plasmodium berghei, UniProt A0A509AEH5); test: DHODH enzyme inhibition assay, PbDHODH; format: biochemical, P. berghei; conditions: Table 4, IC50 class
Chain of PbDHODH (A0A509AEH5 entry or part of it): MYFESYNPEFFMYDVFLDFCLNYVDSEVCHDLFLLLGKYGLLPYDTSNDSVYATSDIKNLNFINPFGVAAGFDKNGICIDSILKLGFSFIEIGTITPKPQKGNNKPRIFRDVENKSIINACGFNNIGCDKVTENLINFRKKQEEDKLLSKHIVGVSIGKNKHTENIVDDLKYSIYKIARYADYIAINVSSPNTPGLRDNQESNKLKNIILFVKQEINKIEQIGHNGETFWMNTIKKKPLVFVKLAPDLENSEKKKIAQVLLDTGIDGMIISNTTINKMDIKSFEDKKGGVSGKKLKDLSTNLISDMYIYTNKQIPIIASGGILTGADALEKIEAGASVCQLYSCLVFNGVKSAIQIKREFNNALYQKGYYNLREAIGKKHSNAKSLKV
Procedure: as §1, §2

hDHODH = hDHODH (Homo sapiens, UniProt Q02127); test: DHODH enzyme inhibition assay, hDHODH; format: biochemical; conditions: Table 4, IC50 class; read-out: hDHODH
Chain of hDHODH (Q02127 whole entry): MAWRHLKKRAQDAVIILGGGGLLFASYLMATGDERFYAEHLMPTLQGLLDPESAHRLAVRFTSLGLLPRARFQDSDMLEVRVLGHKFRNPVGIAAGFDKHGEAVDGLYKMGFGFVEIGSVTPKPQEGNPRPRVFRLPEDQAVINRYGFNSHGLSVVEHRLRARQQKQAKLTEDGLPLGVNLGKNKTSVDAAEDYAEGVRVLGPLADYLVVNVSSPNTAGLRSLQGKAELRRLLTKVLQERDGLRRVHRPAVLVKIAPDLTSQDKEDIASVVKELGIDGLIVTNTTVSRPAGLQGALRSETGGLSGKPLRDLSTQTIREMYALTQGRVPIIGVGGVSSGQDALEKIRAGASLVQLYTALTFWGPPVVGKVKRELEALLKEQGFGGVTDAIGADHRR
Procedure: as §1, §2

P. falciparum = test: Inhibition of cell proliferation, 3H-hypoxanthine uptake in P. falciparum-infected erythrocytes; format: cell-based; conditions: Plasmodium falciparum, 3D7, Erythrocyte, Table 5, 3D7 cells; read-out: EC50 P. falciparum 3D7 cells
From the text: [formula] II. In Vitro Evaluation of Compound Efficacy on the Human Malaria Parasite, P. falciparum.

[1] = Table 5, read-out: PfDHODH IC50
[2] = Table 4, IC50 class, read-out: PfDHODH

IC50 (PfDHODH; [1]) [µM] | SMILES | IC50 (PbDHODH; PbDHODH) [µM] | IC50 (PfDHODH; [2]) [µM] | IC50 (hDHODH) [µM] | further results
0.285 | Cc1cc(Nc2cccc(C(F)(F)F)c2)n2nc(C)nc2n1 |  |  |  | 
 | Cc1cc(Nc2cc(F)c(F)cc2F)n2ncnc2n1 | > 10 | > 10 |  | 
1.17 | CCc1nc2nc(C)cc(Nc3cccc(C(F)(F)F)c3)n2n1 |  |  |  | 
 | Cc1ccc(Nc2cc(C)nc3ncnn23)c(F)c1 |  | > 10 | > 10 | IC50 (PbDHODH; read-out: PbDHODH): > 10 µM
0.375 | COc1ccc(Nc2cc(C)nc3nc(C)nn23)cc1Cl [drawing 98] |  |  |  | 
 | Cc1cc(Nc2ccc(C(F)(F)F)c(F)c2)n2ncnc2n1 |  | < 2 | > 10 | IC50 (PbDHODH; read-out: PbDHODH): < 2 µM
0.145 | CCc1nc2nc(C)cc(Nc3ccc(F)c(Cl)c3)n2n1 |  |  |  | 
 | Cc1cc(Nc2ccc(F)c(F)c2)n2ncnc2n1 | 2 to 10 | 2 to 10 |  | 
 | Cc1cc(Nc2cccc(Cl)c2)n2ncnc2n1 [drawing 35] |  |  |  | IC50 (PfDHODH; PfDHODH, Table 4, IC50 class): < 2 µM
0.395 | CCc1nc2nc(C)cc(Nc3ccc(Br)cc3F)n2n1 |  |  |  | 
> 100 | Cc1cc(Nc2ccc(N3CCOCC3)cc2)n2ncnc2n1 |  |  |  | 
 | CCCCCCCc1ccc(Nc2cc(C)nc3ncnn23)cc1 | > 10 | > 10 |  | 
 | Cc1cc(Nc2cccc(C(F)(F)F)c2)n2ncnc2n1 |  | > 10 | > 10 | IC50 (PbDHODH; read-out: PbDHODH): > 10 µM
 | CCCCc1ccc(Nc2cc(C)nc3ncnn23)cc1 | 2 to 10 | < 2 | > 10 | 
 | Cc1cc(Nc2cccc(F)c2F)n2ncnc2n1 | > 10 | > 10 |  | 
 | Cc1cc(Nc2ccc([N+](=O)[O-])cc2)n2ncnc2n1 | 2 to 10 | 2 to 10 |  | 
 | Cc1cc(Nc2cc(F)ccc2F)n2ncnc2n1 | > 10 | > 10 |  | 
 | Cc1cc(Nc2ccc(Cc3ccccc3)cc2)n2ncnc2n1 |  | < 2 | 2 to 10 | IC50 (PbDHODH; read-out: PbDHODH): > 10 µM
 | Cc1cc(Nc2ccc(C)c(C)c2)n2ncnc2n1 |  | < 2 | > 10 | IC50 (PbDHODH; read-out: PbDHODH): 2 to 10 µM
 | Cc1cc(Nc2ccc(C#N)c(C(F)(F)F)c2)n2ncnc2n1 | > 10 |  | 2 to 10 | IC50 (PfDHODH; PfDHODH, Table 4, IC50 class): 2 to 10 µM
2.25 | CCc1nc2nc(C)cc(Nc3ccc(OC)cc3)n2n1 |  |  |  | 

IC50 (PfDHODH; [1]) [µM] | SMILES | IC50 (PbDHODH; PbDHODH) [µM] | IC50 (PfDHODH; [2]) [µM] | IC50 (hDHODH) [µM] | further results
6.3 ± 0.95 | Cc1cc(Nc2ccc(OCc3ccccc3)cc2)n2ncnc2n1 |  |  |  | 
0.277 | CCCc1nc2nc(C)cc(Nc3ccc(C)c(F)c3)n2n1 |  |  |  | 
0.0752 | Cc1cc(Nc2ccc(Cl)c(Cl)c2)n2nc(C)nc2n1 |  |  |  | 
 | Cc1cc(Nc2ccc(C(C)C)cc2)n2ncnc2n1 | < 2 | < 2 | > 10 | 
 | Cc1cc(Nc2ccc(OC(F)(F)F)cc2)n2ncnc2n1 |  | < 2 | > 10 | IC50 (PbDHODH; read-out: PbDHODH): > 10 µM
 | Cc1cc(Nc2ccc(C(C)(C)C)cc2)n2ncnc2n1 | < 2 | < 2 |  | 
0.116 ± 0.03 | Cc1cc(Nc2ccc3c(c2)CCC3)n2ncnc2n1 |  |  |  | 
 | Cc1cc(Nc2ccc(F)c(C)c2)n2ncnc2n1 [drawing 39] |  | 2 to 10 | 2 to 10 | IC50 (PbDHODH; read-out: PbDHODH): > 10 µM
 | Cc1cc(Nc2ccc(F)c(F)c2F)n2ncnc2n1 |  | > 10 | > 10 | IC50 (PbDHODH; read-out: PbDHODH): > 10 µM
 | Cc1cc(Nc2cccc(F)c2)n2ncnc2n1 |  | 2 to 10 | > 10 | IC50 (PbDHODH; read-out: PbDHODH): > 10 µM
0.362 | COc1ccc(Nc2cc(C)nc3ncnn23)cc1Cl |  |  |  | 
 | CCc1ccc(Nc2cc(C)nc3ncnn23)cc1 | 2 to 10 | < 2 | > 10 | 
 | CCCCCCCCc1ccc(Nc2cc(C)nc3ncnn23)cc1 | > 10 | > 10 |  | 
 | Cc1cc(Nc2c(F)cccc2F)n2ncnc2n1 | > 10 | > 10 |  | 
0.326 | COc1ccc(Nc2cc(C)nc3nc(C)nn23)cc1Cl [drawing 99] |  |  |  | 
0.0379 | CCc1nc2nc(C)cc(Nc3ccc(I)cc3)n2n1 |  |  |  | 
0.132 | CCCc1nc2nc(C)cc(Nc3ccc(C)c(Cl)c3)n2n1 |  |  |  | 
 | Cc1ccc(Nc2cc(C)nc3ncnn23)cc1 | > 10 | 2 to 10 |  | 
 | Cc1cc(Nc2ccc(C(F)(F)F)cc2)n2ncnc2n1 [drawing 93] |  |  |  | EC50 (P. falciparum): 0.33 ± 0.02 µM
 | Cc1cc(Nc2cccc(Cl)c2)n2ncnc2n1 [drawing 116] |  |  |  | IC50 (PfDHODH; PfDHODH IC50, Table 5): 0.566 µM
 | COc1ccc(Nc2cc(C)nc3ncnn23)cc1 |  | < 2 | > 10 | IC50 (PbDHODH; read-out: PbDHODH): < 2 µM
